Consider eleven compounds from PubChem BioAssay (NCI).

Among the test systems are KM12 colon; CAKI-1 renal; UACC-62 melanoma; NCI-H460 lung; OVCAR-5 ovarian; MDA-MB-435; UO-31 renal; COLO 205 colon; M14 melanoma; RXF 393 renal.
Holding throughout (test): DTP human tumour cell line panel, 48 h

“And” between values parts separate entries of the source, which are not always exact repeats. Equal values may be shown once.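 Growth conditions: 96-well plates. Treatment: test compound, 48 hours, 5 concentrations. Analysis: linear interpolation between bracketing concentrations; unreached endpoints set to highest concentration. GI50 marks 50% less growth. The concentration for full growth arrest is given as TGI.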 A value given as a limit tells only on which side of the number the result lay.

Regarding `COc1ccc2c(c1)c(-c1ccc(-c3cn(S(=O)(=O)c4ccccc4)c4ccc(OC)cc34)s1)cn2S(=O)(=O)c1ccccc1`, the GI50 in the assay on KM12 colon, with CAKI-1 renal, in the assay on UACC-62 melanoma, with NCI-H460 lung, in the assay with OVCAR-5 ovarian and in the assay on MDA-MB-435 was over 100 µM throughout. For the same compound, the GI50 in the assay on UO-31 renal, in the assay on COLO 205 colon and in the assay with M14 melanoma was over 100 µM in each case. Besides, the TGI in the assay on KM12 colon, with CAKI-1 renal, in the assay with UACC-62 melanoma, in the assay with NCI-H460 lung, with OVCAR-5 ovarian and in the assay with MDA-MB-435 was over 100 µM throughout. In addition, the TGI in the assay with UO-31 renal, in the assay on COLO 205 colon and with M14 melanoma was over 100 µM each time.

For the compound `CCCCCCCCCCCCCC(=O)O[C@H]1CC[C@H](NC(=O)[C@H](OC)[C@H](O)[C@@H](O)[C@H](O)/C=C/C(C)C)C(=O)NC1`, the TGI (as a rule, the concentration giving total growth inhibition) in the assay on KM12 colon was 1.19 µM and 7.64 µM; in the assay on UACC-62 melanoma it was 0.0143 µM and 0.045 µM; in the assay with RXF 393 renal, 0.283 µM; with OVCAR-5 ovarian it was 51.2 µM and > 100 µM; in the assay on MDA-MB-435, 51.2 µM and 18.2 µM; in the assay on UO-31 renal it was 22 µM. The concentration for total growth inhibition (TGI) in the assay on COLO 205 colon was 0.00374 µM and 0.0154 µM; in the assay on M14 melanoma, 0.345 µM and 0.556 µM and 0.129 µM. In addition, the results for the GI50 with MDA-MB-435 and with UO-31 renal were 0.00789 µM and 0.00883 µM, respectively.

Regarding `COc1cc2c3c(n(CCCCOC(=O)C(F)(F)F)c(=O)c2cc1OC)-c1cc2c(cc1C3=O)OCO2`, the GI50 (in general, the concentration giving 50% growth inhibition) is over 100 µM in the assay with KM12 colon; over 21.8 µM in the assay on CAKI-1 renal; over 100 µM with UACC-62 melanoma; over 100 µM with RXF 393 renal; over 100 µM with OVCAR-5 ovarian; over 100 µM with MDA-MB-435. For the same compound, the GI50 in the assay on UO-31 renal and in the assay on COLO 205 colon was over 100 µM in each case. Besides, the TGI with KM12 colon, in the assay with CAKI-1 renal, with UACC-62 melanoma, in the assay on NCI-H460 lung, in the assay on RXF 393 renal and in the assay with OVCAR-5 ovarian was over 100 µM throughout. Besides, the TGI in the assay with MDA-MB-435, with UO-31 renal and in the assay with COLO 205 colon was over 100 µM in each case.

For `COc1cc(/C=C2/C(=O)N(C(=O)OC(C)C)C(Cc3cc(OC)c(OC)c(C)c3OC)C(=O)N2Cc2ccccc2)c(OC)c(C)c1OC` (stereo unspecified), the TGI in the assay on KM12 colon, in the assay with CAKI-1 renal, in the assay with UACC-62 melanoma, in the assay on NCI-H460 lung, in the assay with RXF 393 renal and in the assay on OVCAR-5 ovarian was over 100 µM in each case. In addition, the TGI with UO-31 renal, with COLO 205 colon and in the assay on M14 melanoma was over 100 µM throughout.

Take `CCC[CH2][Sn]1([CH2]CCC)[O]C(=O)c2cc(I)cc(I)c2[O]1`: the GI50 was 1.61 µM in the assay with KM12 colon; 0.637 µM in the assay with CAKI-1 renal; 1.01 µM in the assay with UACC-62 melanoma; 1.45 µM in the assay on NCI-H460 lung; 0.559 µM in the assay with RXF 393 renal; 1.99 µM in the assay on OVCAR-5 ovarian. Also, the values for the GI50 in the assay on UO-31 renal, in the assay on COLO 205 colon and in the assay on M14 melanoma were 1.49 µM, 0.702 µM and 1.66 µM, respectively. Further, the TGI in the assay on KM12 colon stood at 2.99 µM; in the assay on CAKI-1 renal, 2.15 µM; in the assay on UACC-62 melanoma it was 2.17 µM; in the assay on NCI-H460 lung it was 2.76 µM; in the assay on RXF 393 renal it was 1.97 µM; in the assay with OVCAR-5 ovarian, 3.48 µM. The TGI with UO-31 renal is 2.82 µM; in the assay with COLO 205 colon it was 1.97 µM; in the assay on M14 melanoma, 3.17 µM.

For the compound `Cc1c(Cl)ccc2c1NC(=O)C2(O)C(C(=O)c1ccccc1)c1ccccc1` (stereo unspecified), the TGI is over 100 µM in the assay with KM12 colon; over 100 µM in the assay on CAKI-1 renal; 46 µM with UACC-62 melanoma; over 100 µM in the assay on NCI-H460 lung; 73.8 µM in the assay on RXF 393 renal; over 100 µM in the assay with OVCAR-5 ovarian. Also, the TGI in the assay with UO-31 renal, with COLO 205 colon and with M14 melanoma was over 100 µM throughout.

As to `O=c1cc(-c2cccc(C(F)(F)F)c2)[nH]c2cc3c(cc12)OCO3`, the GI50 in the assay on KM12 colon is 0.486 µM; in the assay with UACC-62 melanoma, 0.356 µM; in the assay on NCI-H460 lung, 0.353 µM; in the assay on OVCAR-5 ovarian it was over 100 µM; in the assay on MDA-MB-435 it was 0.175 µM; in the assay on UO-31 renal, 0.315 µM. For the same compound, the GI50 with COLO 205 colon was 5.1 µM; in the assay on M14 melanoma, 0.41 µM. In addition, the TGI with KM12 colon was 13 µM and > 100 µM; in the assay on CAKI-1 renal, over 100 µM; with NCI-H460 lung it was 4.08 µM and 11 µM; in the assay with OVCAR-5 ovarian, 50 µM and > 100 µM; in the assay on MDA-MB-435 it was 1.95 µM and 0.366 µM; in the assay with COLO 205 colon, 24 µM and > 100 µM. For the same compound, in the assay with M14 melanoma, the TGI is 50 µM and > 100 µM.

Turning to `COc1cc(/C=C2\[C@H]3c4c(c(OC)c(C)c(OC)c4OC)C[C@@H](C(=O)N2Cc2ccccc2)N3C(=O)OCC(C)C)c(OC)c(C)c1OC`, the TGI in the assay with KM12 colon, in the assay on CAKI-1 renal, in the assay with UACC-62 melanoma, with NCI-H460 lung, with RXF 393 renal and with OVCAR-5 ovarian was over 100 µM throughout. Moreover, the TGI with UO-31 renal, with COLO 205 colon and in the assay with M14 melanoma was over 100 µM throughout.

As for `COc1ccccc1OCC(=O)Nc1sc2c(c1C(N)=O)CCC2`, the GI50 in the assay with KM12 colon was over 100 µM; in the assay with CAKI-1 renal, over 100 µM; with UACC-62 melanoma it was 38.1 µM; in the assay with NCI-H460 lung, over 100 µM; in the assay on OVCAR-5 ovarian it was over 100 µM; with MDA-MB-435, over 100 µM. For the same compound, the GI50 in the assay on UO-31 renal, in the assay on COLO 205 colon and in the assay with M14 melanoma was over 100 µM in each case. Moreover, the TGI in the assay with KM12 colon, in the assay with CAKI-1 renal, in the assay with UACC-62 melanoma, with NCI-H460 lung, with OVCAR-5 ovarian and in the assay on MDA-MB-435 was over 100 µM in each case. Further, the TGI with UO-31 renal, with COLO 205 colon and in the assay on M14 melanoma was over 100 µM throughout.

As to `CC(=O)OC(/C=C1/C=CC(=O)O1)COC(=O)c1ccccc1` (stereo unspecified), the TGI in the assay on KM12 colon, in the assay on CAKI-1 renal, with UACC-62 melanoma, in the assay on NCI-H460 lung, in the assay on RXF 393 renal and with OVCAR-5 ovarian was over 31.2 µM throughout. For the same compound, the TGI in the assay on UO-31 renal, in the assay on COLO 205 colon and in the assay with M14 melanoma was over 31.2 µM in each case.

On to `CC1CC2(C)ON=C(c3ccccc3)N2c2ccccc2S1` (stereo unspecified), for which the GI50 in the assay with KM12 colon was 17.5 µM; in the assay with CAKI-1 renal, 78.6 µM; with UACC-62 melanoma, 21 µM; in the assay with NCI-H460 lung it was 41.3 µM; in the assay on OVCAR-5 ovarian it was 34.3 µM; with MDA-MB-435 it was 26 µM. Further, the values for the GI50 in the assay on UO-31 renal, in the assay with COLO 205 colon and in the assay on M14 melanoma were 28.1 µM, 22.6 µM and 31.7 µM, respectively. For the same compound, the TGI in the assay on KM12 colon worked out at 42.5 µM; in the assay with UACC-62 melanoma, 84.3 µM; in the assay on MDA-MB-435 it was 93.3 µM; with COLO 205 colon, 56.2 µM; in the assay on M14 melanoma it was 83.2 µM.
